This test deals with phrenic nerve/diaphragm isolated from rat (striated muscle). Kind of test: Nerve/muscle junction (motor plate) model: isolated rat phrenic nerve/diaphragm preparation. In kind it is cell-based. Conditions: for inhibition at 100 µM: Rattus norvegicus. As to the method:
Activity of Alverine in a model of nerve/muscle junction (motor plate) measured in a preparation of phrenic nerve/diaphragm isolated from rat (striated muscle) (Pollard B. J. et al, Br. J. Anaesth., 1988, 61, 419-424). The phrenic nerve and the diaphragm are carefully isolated and placed in a 50 ml tank filled with survival fluid (Krebs-Henseleit fluid) maintained at a temperature of 37° C. and oxygenated using an oxygen/CO2 mixture (95/5). The variations in tension of the diaphragm are recorded with an initial preload of several grams. After a relaxation period of 30 min., the diaphragm is stimulated indirectly via the phrenic nerve. On each preparation, the effect of the test products was evaluated in a first stage as regards the contractions induced by indirect stimulation via stimulation of the phrenic nerve (0.1 to 0.5 volts, 0.3 ms, 0.1 Hz) at increasing and cumulative concentrations from 10^−9 M to 10^−4 M. In the event of an effect at the end of the test, the diaphragm is stimulated directly in order to determine whether or not the inhibition of the neurotransmission results from a pre-junctional blockage or a post-junctional blockage.

As usually defined, the inhibition is the drop in the measured response relative to a control, in per cent.

Read-outs that look alike come from different tables or passages of the source.

As to `CCN(CCCc1ccccc1)CCCc1ccccc1` [Alverine, di(phenylpropyl)ethylamine], the “inhibition of contractions induced by the indirect stimulations” value (10^−4 M) is reported as “completely inhibits”. Also, the inhibition at 100 µM reads like this: (10^−4 M Alverine, contractions induced by indirect stimulation via phrenic nerve, 1st study, read-out: % of inhibition, indirect stimulation) 100%; (10^−4 M Alverine, contractions induced by indirect stimulation via phrenic nerve, 2nd study, read-out: % of inhibition, indirect stimulation) 100%; (10^−4 M Alverine, direct stimulation of the diaphragm, 1st study, read-out: % of inhibition, direct stimulation) 61.4%; (10^−4 M Alverine, direct stimulation of the diaphragm, 2nd study, read-out: % of inhibition, direct stimulation) 42.2%; (10^−4 M, read-out: inhibition of contractions induced by the direct stimulations) ~50%.

Values taken from patent publication US6335368B1, “Use of alverine for reducing wrinkles” (Societe L'Oreal S.A., priority 1999, dated 2002).
